[1] = 10 mg intermittent, regimen 1 (n = 33)

Description: Study treatment was administered on 28-day cycles. Prior to interim analysis 1, there were 2 treatment regimens. Patients were randomized 1:1 to 28-day cycles to the following 2 regimens until a regimen was selected for further study: Regimen 1 (10 mg once daily intermittent (7 days on/7 days); Regimen 2 (6 mg once daily continuous). Randomization was stratified according to performance status (0 to 1 vs. 2), hemoglobin value (<10 vs. ≥10 g per dl), FGFR alteration type (mutation vs. fusion), prior treatment status (chemotherapy-resistant vs. chemotherapy naïve), and disease distribution (presence or absence of visceral [liver, lung, bone] metastases). Starting dose selection was based on phase 1 efficacy and tolerability.
Thus, after interim analysis, this became a single-arm study. […] Treatment continued until disease progression or unacceptable adverse event(s) per investigator.
All objective responses required confirmation by an additional investigator assessment within 4 to 6 weeks of first assessment. Disease evaluations for regimen 3 were also performed by an independent radiographic review committee. […] Safety was evaluated based on clinical laboratory tests, physical exams, electrocardiograms, and ophthalmology examinations. Adverse events and abnormalities were assessed by investigator and graded per NCI CTCAE v.4.0
Prophylactic measures were taken to minimize risk of common adverse events related to FGFR inhibition. To reduce risk of hyperphosphatemia, a low-phosphate diet was recommended for all patients (600 to 800 mg of dietary phosphate intake per day). To reduce the risk of skin effects, the application of alcohol-free emollient moisturizing cream and avoidance of unnecessary exposure to sunlight, soap, perfumed products, and hot baths was recommended. Patients were asked to keep their fingers and toes clean and nails trimmed to reduce risk of nail effects.
Additional ophthalmology examinations were performed if clinically indicated.

Structure (SMILES): COc1cc(OC)cc(N(CCNC(C)C)c2ccc3ncc(-c4cnn(C)c4)nc3c2)c1 [erdafitinib, N-(3,5-dimethoxy-phenyl)-N′-(1-methylethyl)-N-[3-(1-methyl-1H-pyrazol-4-yl)quinoxalin-6-yl]ethane-1,2-diamine]
- Patients with Hematuria, Grade ≥3 [1]: 0 no. (%)
- Patients with Hyperphosphatemia, Any grade [1]: 16 (48) no. (%)
- Patients with Hyperphosphatemia, Grade 1 [1]: 15 (46) no. (%)
- Patients with Hyperphosphatemia, Grade 2 [1]: 1 (3) no. (%)
- Patients with Hyperphosphatemia, Grade ≥3 [1]: 0 no. (%)
- Patients with Hypomagnesemia, Any grade [1]: 2 (6) no. (%)
- Patients with Hypomagnesemia, Grade 1 [1]: 2 (6) no. (%)
- Patients with Hypomagnesemia, Grade 2 [1]: 0 no. (%)
- Patients with Hypomagnesemia, Grade ≥3 [1]: 0 no. (%)
- Patients with Hyponatremia, Any grade [1]: 2 (6) no. (%)
- Patients with Hyponatremia, Grade 1 [1]: 0 no. (%)
- Patients with Hyponatremia, Grade 2 [1]: 0 no. (%)
- Patients with Hyponatremia, Grade ≥3 [1]: 2 (6) no. (%)
- Patients with Insomnia, Any grade [1]: 3 (9) no. (%)
- Patients with Insomnia, Grade 1 [1]: 0 no. (%)
- Patients with Insomnia, Grade 2 [1]: 3 (9) no. (%)
- Patients with Insomnia, Grade ≥3 [1]: 0 no. (%)
- Patients with Lacrimation increased, Any grade [1]: 6 (18) no. (%)
- Patients with Lacrimation increased, Grade 1 [1]: 5 (15) no. (%)
- Patients with Lacrimation increased, Grade 2 [1]: 1 (3) no. (%)
- Patients with Lacrimation increased, Grade ≥3 [1]: 0 no. (%)
- Patients with Nail dystrophy, Any grade [1]: 2 (6) no. (%)
- Patients with Nail dystrophy, Grade 1 [1]: 2 (6) no. (%)
- Patients with Nail dystrophy, Grade 2 [1]: 0 no. (%)
- Patients with Nail dystrophy, Grade ≥3 [1]: 0 no. (%)
- Patients with Nausea, Any grade [1]: 5 (15) no. (%)
- Patients with Nausea, Grade 1 [1]: 3 (9) no. (%)
- Patients with Nausea, Grade 2 [1]: 2 (6) no. (%)
- Patients with Nausea, Grade ≥3 [1]: 0 no. (%)
- Patients with Onycholysis, Any grade [1]: 7 (21) no. (%)
- Patients with Onycholysis, Grade 1 [1]: 3 (9) no. (%)
- Patients with Onycholysis, Grade 2 [1]: 3 (9) no. (%)
- Patients with Onycholysis, Grade ≥3 [1]: 1 (3) no. (%)
- Patients with Onychomadesis, Any grade [1]: 1 (3) no. (%)
- Patients with Onychomadesis, Grade 1 [1]: 1 (3) no. (%)
- Patients with Onychomadesis, Grade 2 [1]: 0 no. (%)
- Patients with Onychomadesis, Grade ≥3 [1]: 0 no. (%)
- Patients with Oropharyngeal pain, Any grade [1]: 0 no. (%)
- Patients with Oropharyngeal pain, Grade 1 [1]: 0 no. (%)
- Patients with Oropharyngeal pain, Grade 2 [1]: 0 no. (%)
- Patients with Oropharyngeal pain, Grade ≥3 [1]: 0 no. (%)
- Patients with Pain in extremity, Any grade [1]: 5 (15) no. (%)
- Patients with Pain in extremity, Grade 1 [1]: 3 (9) no. (%)
- Patients with Pain in extremity, Grade 2 [1]: 1 (3) no. (%)
- Patients with Pain in extremity, Grade ≥3 [1]: 1 (3) no. (%)
- Patients with Paronychia, Any grade [1]: 2 (6) no. (%)
- Patients with Paronychia, Grade 1 [1]: 0 no. (%)
- Patients with Paronychia, Grade 2 [1]: 2 (6) no. (%)
- Patients with Paronychia, Grade ≥3 [1]: 0 no. (%)
- Patients with Peripheral edema, Any grade [1]: 5 (15) no. (%)
- Patients with Peripheral edema, Grade 1 [1]: 1 (3) no. (%)
- Patients with Peripheral edema, Grade 2 [1]: 4 (12) no. (%)
- Patients with Peripheral edema, Grade ≥3 [1]: 0 no. (%)
- Patients with Pyrexia, Any grade [1]: 5 (15) no. (%)
- Patients with Pyrexia, Grade 1 [1]: 5 (15) no. (%)
- Patients with Pyrexia, Grade 2 [1]: 0 no. (%)
- Patients with Pyrexia, Grade ≥3 [1]: 0 no. (%)
- Patients with Retinal detachment, Any grade [1]: 2 (6) no. (%)
- Patients with Retinal detachment, Grade 1 [1]: 1 (3) no. (%)
- Patients with Retinal detachment, Grade 2 [1]: 1 (3) no. (%)
- Patients with Retinal detachment, Grade ≥3 [1]: 0 no. (%)
- Patients with Stomatitis, Any grade [1]: 16 (48) no. (%)
- Patients with Stomatitis, Grade 1 [1]: 9 (27) no. (%)
- Patients with Stomatitis, Grade 2 [1]: 6 (18) no. (%)
- Patients with Stomatitis, Grade ≥3 [1]: 1 (3) no. (%)
- Patients with Urinary tract infection, Any grade [1]: 4 (12) no. (%)
- Patients with Urinary tract infection, Grade 1 [1]: 0 no. (%)
- Patients with Urinary tract infection, Grade 2 [1]: 2 (6) no. (%)
- Patients with Urinary tract infection, Grade ≥3 [1]: 2 (6) no. (%)
- Patients with Vision blurred, Any grade [1]: 5 (15) no. (%)
- Patients with Vision blurred, Grade 1 [1]: 4 (12) no. (%)
- Patients with Vision blurred, Grade 2 [1]: 1 (3) no. (%)
- Patients with Vision blurred, Grade ≥3 [1]: 0 no. (%)
- Patients with Vomiting, Any grade [1]: 9 (27) no. (%)
- Patients with Vomiting, Grade 1 [1]: 7 (21) no. (%)
- Patients with Vomiting, Grade 2 [1]: 2 (6) no. (%)
- Patients with Vomiting, Grade ≥3 [1]: 0 no. (%)
- Patients with Weight decreased, Any grade [1]: 3 (9) no. (%)
- Patients with Weight decreased, Grade 1 [1]: 1 (3) no. (%)
- Patients with Weight decreased, Grade 2 [1]: 2 (6) no. (%)
- Patients with Weight decreased, Grade ≥3 [1]: 0 no. (%)
- Serious treatment-emergent adverse event: Nervous system disorders [1]: 0 no.
- Serious treatment-emergent adverse event: Urinary tract infection [1]: 0 no.
- Serious treatment-emergent adverse event: Urosepsis [1]: 0 no.
- Treatment-related adverse event: Alopecia, Any grade [1]: 3 (9) no. (%)
- Treatment-related adverse event: Alopecia, Grade 1 [1]: 1 (3) no. (%)
- Treatment-related adverse event: Alopecia, Grade 2 [1]: 2 (6) no. (%)
- Treatment-related adverse event: Alopecia, Grade ≥3 [1]: 0 no. (%)
- Treatment-related adverse event: Asthenia, Any grade [1]: 6 (18) no. (%)
- Treatment-related adverse event: Asthenia, Grade 1 [1]: 2 (6) no. (%)
- Treatment-related adverse event: Asthenia, Grade 2 [1]: 2 (6) no. (%)
- Treatment-related adverse event: Asthenia, Grade ≥3 [1]: 2 (6) no. (%)
- Treatment-related adverse event: Conjunctivitis, Any grade [1]: 4 (12) no. (%)
- Treatment-related adverse event: Conjunctivitis, Grade 1 [1]: 3 (9) no. (%)
- Treatment-related adverse event: Conjunctivitis, Grade 2 [1]: 1 (3) no. (%)
- Treatment-related adverse event: Conjunctivitis, Grade ≥3 [1]: 0 no. (%)
- Treatment-related adverse event: Decreased appetite, Any grade [1]: 6 (18) no. (%)
- Treatment-related adverse event: Decreased appetite, Grade 1 [1]: 2 (6) no. (%)
- Treatment-related adverse event: Decreased appetite, Grade 2 [1]: 4 (12) no. (%)
- Treatment-related adverse event: Decreased appetite, Grade ≥3 [1]: 0 no. (%)
- Treatment-related adverse event: Diarrhea, Any grade [1]: 13 (39) no. (%)
- Treatment-related adverse event: Diarrhea, Grade 1 [1]: 7 (21) no. (%)
- Treatment-related adverse event: Diarrhea, Grade 2 [1]: 5 (15) no. (%)
- Treatment-related adverse event: Diarrhea, Grade ≥3 [1]: 1 (3) no. (%)
- Treatment-related adverse event: Dry mouth, Any grade [1]: 14 (42) no. (%)
- Treatment-related adverse event: Dry mouth, Grade 1 [1]: 13 (39) no. (%)
- Treatment-related adverse event: Dry mouth, Grade 2 [1]: 1 (3) no. (%)
- Treatment-related adverse event: Dry mouth, Grade ≥3 [1]: 0 no. (%)
- Treatment-related adverse event: Dry skin, Any grade [1]: 8 (24) no. (%)
- Treatment-related adverse event: Dry skin, Grade 1 [1]: 7 (21) no. (%)
- Treatment-related adverse event: Dry skin, Grade 2 [1]: 1 (3) no. (%)
- Treatment-related adverse event: Dry skin, Grade ≥3 [1]: 0 no. (%)
- Treatment-related adverse event: Dysgeusia, Any grade [1]: 10 (30) no. (%)
- Treatment-related adverse event: Dysgeusia, Grade 1 [1]: 7 (21) no. (%)
- Treatment-related adverse event: Dysgeusia, Grade 2 [1]: 3 (9) no. (%)
- Treatment-related adverse event: Dysgeusia, Grade ≥3 [1]: 0 no. (%)
- Treatment-related adverse event: Fatigue, Any grade [1]: 4 (12) no. (%)
- Treatment-related adverse event: Fatigue, Grade 1 [1]: 2 (6) no. (%)
- Treatment-related adverse event: Fatigue, Grade 2 [1]: 2 (6) no. (%)
- Treatment-related adverse event: Fatigue, Grade ≥3 [1]: 0 no. (%)
- Treatment-related adverse event: Hand-foot syndrome, Any grade [1]: 2 (6) no. (%)
- Treatment-related adverse event: Hand-foot syndrome, Grade 1 [1]: 0 no. (%)
- Treatment-related adverse event: Hand-foot syndrome, Grade 2 [1]: 2 (6) no. (%)
- Treatment-related adverse event: Hand-foot syndrome, Grade ≥3 [1]: 0 no. (%)
- Treatment-related adverse event: Hyperphosphatemia, Any grade [1]: 15 (46) no. (%)
- Treatment-related adverse event: Hyperphosphatemia, Grade 1 [1]: 14 (42) no. (%)
- Treatment-related adverse event: Hyperphosphatemia, Grade 2 [1]: 1 (3) no. (%)
- Treatment-related adverse event: Hyperphosphatemia, Grade ≥3 [1]: 0 no. (%)
- Treatment-related adverse event: Lacrimation increased, Any grade [1]: 4 (12) no. (%)
- Treatment-related adverse event: Lacrimation increased, Grade 1 [1]: 4 (12) no. (%)
- Treatment-related adverse event: Lacrimation increased, Grade 2 [1]: 0 no. (%)
- Treatment-related adverse event: Lacrimation increased, Grade ≥3 [1]: 0 no. (%)
- Treatment-related adverse event: Nausea, Any grade [1]: 5 (15) no. (%)
- Treatment-related adverse event: Nausea, Grade 1 [1]: 3 (9) no. (%)
- Treatment-related adverse event: Nausea, Grade 2 [1]: 2 (6) no. (%)
- Treatment-related adverse event: Nausea, Grade ≥3 [1]: 0 no. (%)
- Treatment-related adverse event: Onycholysis, Any grade [1]: 6 (18) no. (%)
- Treatment-related adverse event: Onycholysis, Grade 1 [1]: 2 (6) no. (%)
- Treatment-related adverse event: Onycholysis, Grade 2 [1]: 3 (9) no. (%)
- Treatment-related adverse event: Onycholysis, Grade ≥3 [1]: 1 (3) no. (%)
- Treatment-related adverse event: Onychomadesis, Any grade [1]: 1 (3) no. (%)
- Treatment-related adverse event: Onychomadesis, Grade 1 [1]: 1 (3) no. (%)
- Treatment-related adverse event: Onychomadesis, Grade 2 [1]: 0 no. (%)
- Treatment-related adverse event: Onychomadesis, Grade ≥3 [1]: 0 no. (%)
- Treatment-related adverse event: Paronychia, Any grade [1]: 2 (6) no. (%)
- Treatment-related adverse event: Paronychia, Grade 1 [1]: 0 no. (%)
- Treatment-related adverse event: Paronychia, Grade 2 [1]: 2 (6) no. (%)
- Treatment-related adverse event: Paronychia, Grade ≥3 [1]: 0 no. (%)
- Treatment-related adverse event: Retinal detachment, Any grade [1]: 2 (6) no. (%)
- Treatment-related adverse event: Retinal detachment, Grade 1 [1]: 1 (3) no. (%)
- Treatment-related adverse event: Retinal detachment, Grade 2 [1]: 1 (3) no. (%)
- Treatment-related adverse event: Retinal detachment, Grade ≥3 [1]: 0 no. (%)
- Treatment-related adverse event: Stomatitis, Any grade [1]: 16 (49) no. (%)
- Treatment-related adverse event: Stomatitis, Grade 1 [1]: 9 (27) no. (%)
- Treatment-related adverse event: Stomatitis, Grade 2 [1]: 6 (18) no. (%)
- Treatment-related adverse event: Stomatitis, Grade ≥3 [1]: 1 (3) no. (%)
- Treatment-related adverse event: Vision blurred, Any grade [1]: 5 (15) no. (%)
- Treatment-related adverse event: Vision blurred, Grade 1 [1]: 4 (12) no. (%)
- Treatment-related adverse event: Vision blurred, Grade 2 [1]: 1 (3) no. (%)
- Treatment-related adverse event: Vision blurred, Grade ≥3 [1]: 0 no. (%)
- Patients who required ≥1 dose reduction (41 patients of the 8 mg regimen uptitrated to 9 mg per day): 59%
- Hyperphosphatemia leading to dose reduction (Regimen 3): 9%
- Hyperphosphatemia reported (Regimen 3): 77%
- Patients discontinued due to treatment-emergent adverse events (Regimen 3): 13%
- Patients who required dose reduction (Regimen 3): 56%
- Stomatitis leading to dose reduction (Regimen 3): 16%
- Treatment-emergent adverse events grade 3 or 4 (Regimen 3): 67%
- Central serious retinopathy events resolved (all unresolved events were grade 1 or 2): Seventy-six
- Hyperphosphatemia managed by dose interruption (in vivo): 23%
- Time of peak phosphate elevation after erdafitinib initiation (normalized by cycle 5): 6 weeks
- Patients with grade ≥3 treatment-emergent adverse events (overall trial population): 66%
- Patients with grade 1 or 2 events among patients with eye disorders (patients with eye disorders (n=62)): 84%

Reference: US20220175768A1, “FGFR TYROSINE KINASE INHIBITORS FOR THE TREATMENT OF UROTHELIAL CARCINOMA” (Janssen Pharmaceutica NV, priority 2019, published 2022)
